Experimental data published in patent US20160195544A1, “METHOD OF DIAGNOSING SEPSIS OR SEPSIS RISK” (UNIVERSITY OF ROCHESTER, priority 2013, published 2016).

Key:
[1] = target: T1, VLA-3 (Mus musculus, UniProt P09055+Q62470); assay: Multiphoton intravital microscopy (MP-IVM) of fMLP-superfused cremaster vessels of LysM-GFP mice; type: in vivo; conditions: fMLP 1 μM superfusion, 88 μg IV
T1 construct: endogenous in cells; host or cells: neutrophils and other tissues of live mice (C57BL/6; LysM-GFP bone marrow chimeras)
T1 sequence (Q62470 33-1053): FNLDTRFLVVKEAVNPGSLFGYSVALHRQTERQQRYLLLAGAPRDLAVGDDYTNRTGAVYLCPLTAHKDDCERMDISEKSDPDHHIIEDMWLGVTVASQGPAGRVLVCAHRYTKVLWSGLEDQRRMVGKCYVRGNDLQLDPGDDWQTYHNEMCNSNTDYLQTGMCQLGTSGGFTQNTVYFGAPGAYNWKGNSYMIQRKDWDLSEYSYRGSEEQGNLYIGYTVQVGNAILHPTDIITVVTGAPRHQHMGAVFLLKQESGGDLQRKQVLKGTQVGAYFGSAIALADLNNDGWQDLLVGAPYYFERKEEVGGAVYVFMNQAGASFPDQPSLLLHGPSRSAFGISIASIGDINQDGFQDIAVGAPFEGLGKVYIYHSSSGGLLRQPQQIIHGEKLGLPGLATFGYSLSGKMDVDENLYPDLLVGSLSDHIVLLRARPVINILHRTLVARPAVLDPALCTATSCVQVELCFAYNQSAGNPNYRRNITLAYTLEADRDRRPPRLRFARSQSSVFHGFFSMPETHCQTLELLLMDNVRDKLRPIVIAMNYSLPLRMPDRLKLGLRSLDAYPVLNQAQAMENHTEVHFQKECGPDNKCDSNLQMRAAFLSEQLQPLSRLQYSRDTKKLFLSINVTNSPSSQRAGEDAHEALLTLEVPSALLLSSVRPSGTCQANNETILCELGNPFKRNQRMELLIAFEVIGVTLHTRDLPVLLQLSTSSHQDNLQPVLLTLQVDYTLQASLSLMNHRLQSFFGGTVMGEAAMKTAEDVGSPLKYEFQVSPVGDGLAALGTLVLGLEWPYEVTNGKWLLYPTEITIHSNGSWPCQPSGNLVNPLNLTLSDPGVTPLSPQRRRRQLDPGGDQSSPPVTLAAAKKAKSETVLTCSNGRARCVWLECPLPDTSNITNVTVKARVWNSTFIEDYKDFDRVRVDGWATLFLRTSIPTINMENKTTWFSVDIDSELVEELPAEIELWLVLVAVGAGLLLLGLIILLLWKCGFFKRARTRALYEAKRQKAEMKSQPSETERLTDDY
T1 sequence (P09055 21-798): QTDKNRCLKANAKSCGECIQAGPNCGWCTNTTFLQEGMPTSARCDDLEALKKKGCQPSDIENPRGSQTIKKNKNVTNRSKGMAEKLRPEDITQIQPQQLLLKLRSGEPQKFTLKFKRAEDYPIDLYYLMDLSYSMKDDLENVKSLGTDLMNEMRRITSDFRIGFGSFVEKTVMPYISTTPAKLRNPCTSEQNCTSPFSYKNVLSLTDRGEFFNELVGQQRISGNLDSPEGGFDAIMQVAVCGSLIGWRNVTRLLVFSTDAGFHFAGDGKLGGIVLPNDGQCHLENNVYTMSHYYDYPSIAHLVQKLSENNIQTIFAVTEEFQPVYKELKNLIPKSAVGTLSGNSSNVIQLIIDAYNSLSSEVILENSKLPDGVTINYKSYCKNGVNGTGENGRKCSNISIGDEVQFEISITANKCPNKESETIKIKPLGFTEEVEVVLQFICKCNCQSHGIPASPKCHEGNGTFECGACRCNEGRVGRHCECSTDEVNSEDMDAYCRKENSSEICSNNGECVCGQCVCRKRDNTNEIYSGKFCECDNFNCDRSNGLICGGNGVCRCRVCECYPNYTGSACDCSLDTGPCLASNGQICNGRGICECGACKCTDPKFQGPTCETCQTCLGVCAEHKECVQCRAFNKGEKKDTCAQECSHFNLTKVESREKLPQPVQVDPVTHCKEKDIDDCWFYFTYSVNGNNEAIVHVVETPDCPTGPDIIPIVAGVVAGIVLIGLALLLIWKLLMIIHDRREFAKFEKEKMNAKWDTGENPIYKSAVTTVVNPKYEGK
Description: For MP-IVM of Lysozyme M (LysM)-GFP mice (Faust et al., “Insertion of Enhanced Green Fluorescent Protein Into the Lysozyme Gene Creates Mice With Green Fluorescent Granulocytes and Macrophages,” Blood 96:719-726 (2000), the disclosure of which is incorporated herein by reference in its entirety) in which granulocytes and monocytes express GFP were used. In order to accurately track morphological changes and migration velocities of individual extravasating leukocytes, mixed bone marrow chimera mice were generated using 80% WT and 20% LysM-GFP bone marrow into irradiated WT recipient mice to reduce the density of fluorescent cells during imaging. 8 weeks after bone marrow transfer to the irradiated recipient mice, the mice were then used for in vivo imaging. Cremaster muscle was prepared for imaging as previously described (Sumagin et al., “Leukocyte-Endothelial Cell Interactions are Linked to Vascular Permeability Via ICAM-1-Mediated Signaling,” Am. J. Physiol. Heart Circ. Physiol. 295:H969-H977 (2008), the disclosure of which is incorporated herein by reference in its entirety). Briefly, mice were anesthetized with pentobarbital sodium (65 mg/kg IP) and maintained on isoflorane inhalation anesthesia. The body temperature was maintained by placing the animal on a warming pad set. […] Imaging data were analyzed with velocity software (PerkinElmer).

[2] = target: T1, VLA-3; assay: CLP (cecal ligation and puncture) sepsis mouse model, VLA-3 blocking with peptide; type: in vivo
Protocol: (§1) Endotoxemia and CLP were performed according to Animal Resource Protocol approved by the Committee at University of Rochester. For endotoxemia assay, 8-12-wk-old C57BL/6 (Harlan) male mice were weighed and LPS (E. coli […], Sigma-Aldrich) was administered by intra peritoneal (IP) injection to achieve LD90 mortality rate. CLP survival surgery was performed under isofluorane inhalation anesthesia. Caecum was ligated and punctured through and through with a 21-gauge needle. All the mice were resuscitated with 1 ml lactated Ringers injected subcutaneously. For VLA-3 blocking experiments, LXY2 (88 μg) (CysD-AspD-Gly-Tyr(3-NO2)-Gly-4Hyp-Asn-CysD) where the amino acids may be D amino acids, or control (88 μg) (Peptide International) peptides were administered intravenously (IV) at 2 hours and by IP at 8 hours, 32 hours following CLP or endotoxemia. Survival was monitored for 120 hours.
For flow cytometry measurement of the integrin expression on neutrophil, bone marrow (BM), peritoneal Lavage (PL), peripheral blood and lungs were isolated from naïve and septic mice at the indicated time points and subsequently single-cell suspensions were prepared. RBC lysis was performed using ACK lysing buffer (Invitrogen, San Diego, Calif.). The Fc receptors were blocked with unconjugated anti-CD16/32 (eBioscience, San Diego, Calif.) for 30 minutes. Samples were stained with Alexafluor 488 labeled anti-Gr1 (Invitrogen). Allophycocyanin (APC) labeled Ly6G (BD Biosciences), PerCp-Cy5.5 labeled anti-CD11b (eBioscience, San Diego, Calif.,), fluorescein isothiocyanate (FITC) anti-F4/80 (eBioscience, San Diego, Calif., USA), purified goat anti-mouse integrin α3/CD49c (R&D Systems), PE-anti-mouse integrin α2/CD49b, α5/CD49e, αv/CD51, APC-anti-mouse integrin α6/CD49f and PE conjugated donkey anti-goat IgG (Santa Cruz) antibodies were used. All samples were fixed with 3.7% formaldehyde and collected on FACS Calliber flow cytometer (BD Biosciences, San Diego, Calif.). Data were analyzed using Flow Jo software.
Peritoneal lavage was collected after injection of 10 ml PBS into the peritoneum. […] Colony count for each group was expressed as CFU/ml.
Serum from individual mice was collected at the indicated time points and the level of IL-6 was determined by standard sandwich ELISA protocol. […] The color reaction was developed using TMB (Thermo Scientific, Rockford, Ill.) and measured with an ELISA reader (Kinetic microplate reader; Molecular Devices) at 450 nm.
All values are expressed as the mean±SEM. Data from human samples were analyzed by one-way ANOVA. Data from murine experiments were analyzed by paired non-parametric t-test (Wilcoxon test). Survival curves were analyzed by the Kaplan-Meyer log-rank test. […]

[3] = target: T1, VLA-3; assay: LPS-induced endotoxemia mouse model, VLA-3 blocking with peptide; type: in vivo; conditions: endotoxemia mice, 8 hours, 88 μg peptide, vs control peptide
Protocol: as §1
For flow cytometry measurement of the integrin expression on neutrophil, bone marrow (BM), peritoneal Lavage (PL), peripheral blood and lungs were isolated from naïve and septic mice at the indicated time points and subsequently single-cell suspensions were prepared. RBC lysis was performed using ACK lysing buffer (Invitrogen, San Diego, Calif.). The Fc receptors were blocked with unconjugated anti-CD16/32 (eBioscience, San Diego, Calif.) for 30 minutes. […] Data were analyzed using Flow Jo software.

[4] = target: T1, VLA-3; assay: Transmission electron microscopy of fMLP-superfused cremaster microvasculature; type: in vivo; conditions: 88 μg IV
Protocol: Leukocyte extravasation was first observed on the fMLP-stimulated cremaster venules of LysM-GFP mice by MP-IVM. LXY2 (88 μg) peptide was injected IV when extravasating cells were noticed. The cremaster was then immediately dissected from the body post-euthanization and fixed with 2.5% glutaraldehyde. The tissue was further processed for transmission electron microscopy at the Electron Microscope Research Core at the University of Rochester for transmission electron microscopy.

[5] = system: neutrophils isolated from healthy donors; assay: In vitro stimulation of neutrophils from healthy donors, VLA-3 expression by RT-PCR and flow cytometry; type: cell-based; conditions: human neutrophils, 1 and 3 hours of stimulation, PMA 20 ng/ml, LPS 100 μg/ml
Description: Blood was collected from healthy volunteers via antecubital vein puncture in heparin containing vacutainers. Granulocytes and erythrocytes were separated from whole blood by centrifugation through 1-step Polymorphs (Fresenius Kabi Norge AS) density gradient. Remaining erythrocytes were removed by hypotonic lysis, yielding a neutrophil purity of >98%. The Human Research Studies Review Board of the University of Rochester approved this study, and informed consent was obtained in accordance with the Declaration of Helsinki To measure integrin expression, neutrophils were stimulated with PMA (20 ng/ml), TNF-α (20 ng/ml), LPS (100 μg/ml) or fMLP (1 μM for 1 hour or 3 hours in L15 (Leibovitz) medium with glucose at 37° C. temperatures.
Total RNA was prepared from human neutrophils or sorted mouse bone marrow granulocytes using RNeasy Mini Kit (QIAGEN, Valencia, Calif.). Similarly, RNA was reverse transcribed by using murine leukemia virus reverse transcriptase (Life Technologies, Bethesda, Md.), with oligo(dT) as the primer (Invitrogen, San Diego, Calif.). All cDNAs were divided into aliquots and stored at −20° C. until further use. Quantitation of integrins α3 and α2 on human neutrophils and IL-6, IL-β and TNFα mRNA were performed using TaqMan® Gene Expression Assays (Applied Biosystems). […] RQ values were analyzed using software.

Row | Compound | neutrophil extravasation in response to fMLP [1] | survival / sepsis lethality ([2]; CLP and endotoxemia mice, 88 μg IV at 2 hours and IP at 8 and 32 hours, survival monitored 120 hours, Kaplan-Meyer log-rank) | number of tissue-infiltrating neutrophils (PL and lungs) ([2]; mice with CLP-induced sepsis, 8 hours after CLP, 88 μg/dose IV, vs control peptide) | local bacterial clearance (bacterial load in PL) ([2]; septic mice, PL streaked on TSA blood agar, colonies counted after 24 hours) | levels of the IL-6 cytokine in the serum ([2]; septic mice, sandwich ELISA) | number of tissue-infiltrating neutrophils (PL) [3] | location of neutrophils in the vessel wall (ultrastructural analysis) [4] | mRNA level of VLA-3 ([5]; RT-PCR) | protein (cell-surface) level of VLA-3 ([5]; flow cytometry)
1 | CysD-AspD-Gly-Tyr(3-NO2)-Gly-4Hyp-Asn-CysD [LXY2] | dramatically reduced | protected mice from sepsis lethality | significantly reduced | without altering | reduced | significantly reduced | majority of neutrophils accumulated within the space between the endothelium and the basement membrane |  | 
2 | CCCCCCCCCCCCCC(=O)O[C@@H]1[C@@H](C)[C@@]2(O)[C@@H](C=C(CO)C[C@]3(O)C(=O)C(C)=C[C@@H]23)[C@@H]2C(C)(C)[C@]12OC(C)=O [PMA] |  |  |  |  |  |  |  | significant increases | significant increases
